Experimental data from ChEMBL document CHEMBL5030544, “Synthesis, anti-microbial, toxicity and molecular docking studies of N-nitroso-N-phenylhydroxylamine (cupferron) and its derivatives” (Bioorg Med Chem Lett, 2021).
Converted amounts (≈) assume the structure as drawn. The source made the active and inactive calls. No cut-off for these calls is given here.

Columns and labels:
Streptococcus pyogenes [1] = assay: Antibacterial activity against Streptococcus pyogenes ATCC 19615 assessed as zone of inhibition at 5 mg/ml; type: functional; conditions: for zone of inhibition at 5000 µg/mL: read-out: IZ
Corynebacterium [2] = assay: Antibacterial activity against Corynebacterium ATCC 49368 assessed as zone of inhibition at 15 mg/ml; type: functional; conditions: for zone of inhibition at 15000 µg/mL: read-out: IZ
Staphylococcus aureus [3] = assay: Antibacterial activity against Staphylococcus aureus […] assessed as bacterial growth inhibition; type: functional
Corynebacterium [4] = assay: Antibacterial activity against Corynebacterium ATCC 49368 assessed as zone of inhibition at 5 mg/ml; type: functional; conditions: read-out: IZ
Klebsiella pneumoniae [5] = assay: Antibacterial activity against Klebsiella pneumoniae ATCC 13883 assessed as zone of inhibition at 15 mg/kg; type: functional; conditions: read-out: IZ
Bacillus subtilis [6] = assay: Antibacterial activity against Bacillus subtilis ATCC 23857 assessed as zone of inhibition at 10 mg/ml; type: functional; conditions: for zone of inhibition at 10000 µg/mL: read-out: IZ
Salmonella typhi [7] = assay: Antibacterial activity against Salmonella typhi ATCC 6539 assessed as bacterial growth inhibition; type: functional
Streptococcus pyogenes [8] = assay: Antibacterial activity against Streptococcus pyogenes ATCC 19615 assessed as zone of inhibition at 10 mg/ml; type: functional; conditions: for zone of inhibition at 10000 µg/mL: read-out: IZ
Staphylococcus aureus [9] = assay: Antibacterial activity against Staphylococcus aureus […] assessed as zone of inhibition at 5 mg/ml; type: functional; conditions: for zone of inhibition at 5000 µg/mL: read-out: IZ
Escherichia coli [10] = assay: Antibacterial activity against Escherichia coli ATCC 25922 assessed as bacterial growth inhibition; type: functional
Corynebacterium [11] = assay: Antibacterial activity against Corynebacterium ATCC 49368 assessed as bacterial growth inhibition; type: functional
Bacillus subtilis [12] = assay: Antibacterial activity against Bacillus subtilis ATCC 23857 assessed as zone of inhibition at 15 mg/ml; type: functional; conditions: for zone of inhibition at 15000 µg/mL: read-out: IZ
Streptococcus pyogenes [13] = assay: Antibacterial activity against Streptococcus pyogenes ATCC 19615 assessed as bacterial growth inhibition; type: functional
Corynebacterium [14] = assay: Antibacterial activity against Corynebacterium ATCC 49368 assessed as zone of inhibition at 10 mg/ml; type: functional; conditions: for zone of inhibition at 10000 µg/mL: read-out: IZ
Bacillus subtilis [15] = assay: Antibacterial activity against Bacillus subtilis ATCC 23857 assessed as zone of inhibition at 5 mg/ml; type: functional; conditions: for zone of inhibition at 5000 µg/mL: read-out: IZ
Staphylococcus aureus [16] = assay: Antibacterial activity against Staphylococcus aureus […] assessed as zone of inhibition at 10 mg/ml; type: functional; conditions: for zone of inhibition at 10000 µg/mL: read-out: IZ
Streptococcus pyogenes [17] = assay: Antibacterial activity against Streptococcus pyogenes ATCC 19615 assessed as zone of inhibition at 15 mg/ml; type: functional; conditions: for zone of inhibition at 15000 µg/mL: read-out: IZ
Klebsiella pneumoniae [18] = assay: Antibacterial activity against Klebsiella pneumoniae ATCC 13883 assessed as bacterial growth inhibition; type: functional
Klebsiella pneumoniae [19] = assay: Antibacterial activity against Klebsiella pneumoniae ATCC 13883 assessed as zone of inhibition at 10 mg/kg; type: functional; conditions: read-out: IZ
Pseudomonas aeruginosa [20] = assay: Antibacterial activity against Pseudomonas aeruginosa ATCC 27853 assessed as zone of inhibition at 10 mg/ml; type: functional; conditions: read-out: IZ
Staphylococcus aureus [21] = assay: Antibacterial activity against Staphylococcus aureus […] assessed as zone of inhibition at 15 mg/ml; type: functional; conditions: for zone of inhibition at 15000 µg/mL: read-out: IZ
Bacillus subtilis [22] = assay: Antibacterial activity against Bacillus subtilis ATCC 23857 assessed as bacterial growth inhibition; type: functional
Pseudomonas aeruginosa [23] = assay: Antibacterial activity against Pseudomonas aeruginosa ATCC 27853 assessed as zone of inhibition at 15 mg/ml; type: functional; conditions: read-out: IZ
Salmonella typhi [24] = assay: Antibacterial activity against Salmonella typhi ATCC 6539 assessed as zone of inhibition at 15 mg/kg; type: functional; conditions: for zone of inhibition at 15 mg/kg: Salmonella enterica, read-out: IZ
Salmonella typhi [25] = assay: Antibacterial activity against Salmonella typhi ATCC 6539 assessed as zone of inhibition at 10 mg/kg; type: functional; conditions: for zone of inhibition at 10 mg/kg: Salmonella enterica, read-out: IZ
Pseudomonas aeruginosa [26] = assay: Antibacterial activity against Pseudomonas aeruginosa ATCC 27853 assessed as zone of inhibition at 5 mg/ml; type: functional; conditions: read-out: IZ
Escherichia coli [27] = assay: Antibacterial activity against Escherichia coli ATCC 25922 assessed as zone of inhibition at 15 mg/ml; type: functional; conditions: read-out: IZ
Klebsiella pneumoniae [28] = assay: Antibacterial activity against Klebsiella pneumoniae ATCC 13883 assessed as zone of inhibition at 5 mg/kg; type: functional; conditions: read-out: IZ
Escherichia coli [29] = assay: Antibacterial activity against Escherichia coli ATCC 25922 assessed as zone of inhibition at 5 mg/ml; type: functional; conditions: read-out: IZ
HepG2 = assay: Cytotoxicity against human HepG2 cells at up to 100 uM by MTT assay; type: cell-based
Salmonella typhi [30] = assay: Antibacterial activity against Salmonella typhi ATCC 6539 assessed as zone of inhibition at 5 mg/kg; type: functional, Salmonella enterica subsp. enterica serovar Typhi; conditions: Salmonella enterica, read-out: IZ
LLC-PK1 = assay: Cytotoxicity against pig LLC-PK1 cells at up to 100 uM by MTT assay; type: cell-based, Sus scrofa
Escherichia coli [31] = assay: Antibacterial activity against Escherichia coli ATCC 25922 assessed as zone of inhibition at 10 mg/ml; type: functional; conditions: read-out: IZ
Pseudomonas aeruginosa [32] = assay: Antibacterial activity against Pseudomonas aeruginosa ATCC 27853 assessed as bacterial growth inhibition; type: functional
[33] = Salmonella enterica subsp. enterica serovar Typhi

| Compound | zone of inhibition at 5000 µg/mL (Streptococcus pyogenes [1]) | zone of inhibition at 15000 µg/mL (Corynebacterium [2]) | MIC (Staphylococcus aureus [3]) | zone of inhibition at 15 mg/kg (Klebsiella pneumoniae [5]) | zone of inhibition at 10000 µg/mL (Bacillus subtilis [6]) | zone of inhibition at 10000 µg/mL (Streptococcus pyogenes [8]) | zone of inhibition at 5000 µg/mL (Staphylococcus aureus [9]) | MIC (Escherichia coli [10]) | MIC (Corynebacterium [11]) | zone of inhibition at 15000 µg/mL (Bacillus subtilis [12]) | MIC (Streptococcus pyogenes [13]) | zone of inhibition at 10000 µg/mL (Corynebacterium [14]) | zone of inhibition at 5000 µg/mL (Bacillus subtilis [15]) | zone of inhibition at 10000 µg/mL (Staphylococcus aureus [16]) | zone of inhibition at 15000 µg/mL (Streptococcus pyogenes [17]) | MIC (Klebsiella pneumoniae [18]) | zone of inhibition at 10000 µg/mL (Pseudomonas aeruginosa [20]) | zone of inhibition at 15000 µg/mL (Staphylococcus aureus [21]) | MIC (Bacillus subtilis [22]) | zone of inhibition at 15000 µg/mL (Pseudomonas aeruginosa [23]) | further results |
| --- | --- | --- | --- | --- | --- | --- | --- | --- | --- | --- | --- | --- | --- | --- | --- | --- | --- | --- | --- | --- | --- |
| N.O=NN(O)c1ccc(CCl)cc1 | 10 mm | 17 mm | 16 µg/mL | 10 mm | 14 mm | 12 mm | 8 mm | inactive | 16 µg/mL | 18 mm | 8 µg/mL | 14 mm | 10 mm | 12 mm | 18 mm | inactive | 10 mm | 20 mm | 16 µg/mL | 15 mm | zone of inhibition at 5000 µg/mL (Corynebacterium [4]): 13 mm; MIC (Salmonella typhi [7]; [33]): inactive; zone of inhibition at 10 mg/kg (Klebsiella pneumoniae [19]): 7 mm |
| GENTAMICIN |  |  | 8 µg/mL |  |  |  |  |  |  |  |  |  |  |  |  |  |  |  |  |  | inhibition zone (IZ) (Streptococcus pyogenes [1]): 3 mm; inhibition zone (IZ) (Salmonella typhi [24]; [33]): 26 mm; inhibition zone (IZ) (Corynebacterium [2]): 23 mm; inhibition zone (IZ) (Bacillus subtilis [6]): 10 mm; MIC (Salmonella typhi [7]; [33]): 16 µg/mL; inhibition zone (IZ) (Streptococcus pyogenes [8]): 13 mm; inhibition zone (IZ) (Staphylococcus aureus [9]): 10 mm; inhibition zone (IZ) (Bacillus subtilis [12]): 24 mm; inhibition zone (IZ) (Corynebacterium [14]): 10 mm; inhibition zone (IZ) (Salmonella typhi [25]; [33]): 12 mm; inhibition zone (IZ) (Bacillus subtilis [15]): 5 mm; inhibition zone (IZ) (Staphylococcus aureus [16]): 11 mm; inhibition zone (IZ) (Streptococcus pyogenes [17]): 25 mm; inhibition zone (IZ) (Staphylococcus aureus [21]): 22 mm |
| N.O=NN(O)c1ccccc1 | 8 mm | 10 mm | 20 µg/mL |  | 15 mm | 10 mm |  | inactive | 20 µg/mL | 17 mm | 20 µg/mL |  | 10 mm | 9 mm | 20 mm | inactive |  | 12 mm | 16 µg/mL |  | MIC (Salmonella typhi [7]; Salmonella enterica): 20 µg/mL; MIC (Staphylococcus aureus [9]): inactive |
| N.O=NN(O)c1ccc(Cl)cc1 | 12 mm | 23 mm | 4 µg/mL | 15 mm | 19 mm | 15 mm | 9 mm | 20 µg/mL | 8 µg/mL | 35 mm | 4 µg/mL | 16.1 mm | 14 mm | 9 mm | 27 mm | 20 µg/mL | 10 mm | 25 mm | 2 µg/mL | 13 mm | zone of inhibition at 5000 µg/mL (Pseudomonas aeruginosa [26]): 5 mm; zone of inhibition at 15000 µg/mL (Escherichia coli [27]): 20 mm; zone of inhibition at 15 mg/kg (Salmonella typhi [24]): 19 mm; zone of inhibition at 5 mg/kg (Klebsiella pneumoniae [28]): 8 mm; zone of inhibition at 5000 µg/mL (Corynebacterium [4]): 13 mm; zone of inhibition at 5000 µg/mL (Escherichia coli [29]): 10 mm; MIC (Salmonella typhi [7]; Salmonella enterica): 20 µg/mL; Activity (HepG2): Non-Toxic; zone of inhibition at 5 mg/kg (Salmonella typhi [30]): 9 mm; Activity (LLC-PK1): Non-Toxic; zone of inhibition at 10 mg/kg (Salmonella typhi [25]): 13 mm; zone of inhibition at 10000 µg/mL (Escherichia coli [31]): 14 mm; zone of inhibition at 10 mg/kg (Klebsiella pneumoniae [19]): 11 mm; MIC (Pseudomonas aeruginosa [32]): 20 µg/mL |
| O=C(O)c1cn(C2CC2)c2cc(N3CCNCC3)c(F)cc2c1=O [CIPROFLOXACIN] | 10 mm | 19 mm |  | 25 mm | 15 mm | 13 mm | 7 mm |  | 4 µg/mL (≈ 12.1 µM) | 27 mm |  | 16 mm | 12 mm | 10 mm | 26 mm |  | 18 mm | 22 mm | 2 µg/mL (≈ 6.04 µM) | 25 mm | zone of inhibition at 5000 µg/mL (Pseudomonas aeruginosa [26]): 15 mm; zone of inhibition at 15000 µg/mL (Escherichia coli [27]): 10 mm; zone of inhibition at 15 mg/kg (Salmonella typhi [24]): 32 mm; zone of inhibition at 5000 µg/mL (Corynebacterium [4]): 10 mm; zone of inhibition at 10 mg/kg (Salmonella typhi [25]): 15 mm; zone of inhibition at 10000 µg/mL (Escherichia coli [31]): 11 mm; zone of inhibition at 10 mg/kg (Klebsiella pneumoniae [19]): 12 mm |
| CN[C@@H]1[C@H](O[C@H]2[C@H](O[C@H]3[C@H](O)[C@@H](O)[C@H](N=C(N)N)[C@@H](O)[C@@H]3N=C(N)N)O[C@@H](C)[C@]2(O)C=O)O[C@@H](CO)[C@H](O)[C@H]1O [STREPTOMYCIN] | 2 mm | 20 mm |  | 14 mm | 10 mm | 3 mm | 2 mm | 16 µg/mL (≈ 27.5 µM) |  | 20 mm | 8 µg/mL (≈ 13.8 µM) | 8 mm |  | 4 mm | 10 mm | 16 µg/mL (≈ 27.5 µM) | 11 mm | 8 mm |  | 15 mm |  |
